In the assay the target is T1, BACE2 (Homo sapiens, UniProt Q9Y5Z0).
T1 construct: BACE2 enzyme ectodomain (derived from plasmid “pET17b-T7-hu proBACE2”) was prepared as described in Ostermann et al; T7 tag (N); made in house
T1 sequence (Q9Y5Z0 21-473 limits assumed): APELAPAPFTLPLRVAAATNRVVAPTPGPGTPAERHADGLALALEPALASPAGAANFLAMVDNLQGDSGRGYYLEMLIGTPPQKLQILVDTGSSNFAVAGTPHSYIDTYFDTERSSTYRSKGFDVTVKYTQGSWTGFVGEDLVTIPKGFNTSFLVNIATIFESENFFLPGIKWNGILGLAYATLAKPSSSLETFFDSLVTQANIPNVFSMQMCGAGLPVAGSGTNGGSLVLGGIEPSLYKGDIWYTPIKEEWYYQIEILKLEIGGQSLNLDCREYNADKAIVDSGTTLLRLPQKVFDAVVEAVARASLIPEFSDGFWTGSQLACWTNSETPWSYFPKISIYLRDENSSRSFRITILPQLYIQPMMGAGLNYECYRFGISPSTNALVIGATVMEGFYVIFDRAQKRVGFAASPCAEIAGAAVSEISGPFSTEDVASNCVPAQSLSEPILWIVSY
Nature of the assay: Fluorescent-peptide cleavage assay for BACE2 inhibition. To be noted: BACE2 enzyme ectodomain, fluorescent peptide WS EVNLD AEFRC-MR121, assay buffer pH 4.5, room temperature. The format is biochemical. Summed up: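 Pro-enzyme BACE2 was activated at 80 nM for 1 h at room temperature in 100 mM Na-acetate, 20 mM EDTA, 0.05% BSA, pH 4.5, then preincubated 10 min with compound. IC50 from sigmoidal dose-response fit.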

Molecules are shown by their SMILES.

Consider `CC[C@@]1(c2cccc(NC(=O)c3ccc(F)cn3)c2)CC(=O)N(C)C(N)=N1` [Example 85, 5-Fluoro-pyridine-2-carboxylic acid [3-((S)-2-amino-4-ethyl-1-methyl-6-oxo-1,4,5,6-tetrahydro-pyrimidin-4-yl)-phenyl]-amide], for which the IC50 amounted to 0.3 µM.

The IC50 is the point on the concentration scale where inhibition reaches its midpoint. Low values mean greater potency, high ones weaker potency.

(Values after US8461160B2, “Dihydropyrimidinones” (Hoffmann-La Roche, Inc., priority 2009, dated 2013).)
